Measurements from PMC5704913 (Toxicology and applied pharmacology, 2017).
“Also recorded” adds a separate entry of the source.

Experiments:
[1] = Brain manganese levels by ICPMS after 7 days daily dosing; assay type: in vivo, C57BL/6 mice; details: 15 mg/kg i.p. daily for 7 days
[2] = tested on: C57BL/6 mice; experiment: Open field test and accelerated rotarod test; assay type: in vivo; details: 15 mg/kg i.p. daily for 7 days
[3] = H2O2 scavenging assay; assay type: biochemical; details: read-out: H2O2 IC50; concentration that scavenged 50% of H2O2; 50 µM H2O2, 1 minute
[4] = SOD activity assay; assay type: biochemical; details: unit = amount that inhibits one-half the formation of adrenochrome at pH 10.2
[5] = tested on: respiring brain mitochondria; details: ref Castello et al., 2008; cited from earlier work
[6] = tested on: MPTP-treated mice; details: oral administration; ref Liang et al., 2007; cited from earlier work

IC50 [3] [nM]	Compound	brain manganese levels vs vehicle (in words) [1]	increase of brain manganese levels [1]	neurobehavioral changes (open field, rotarod) vs vehicle [2]	SOD Activity [4] [U/mg]	H2O2 scavenging in respiring brain mitochondria (in words) [5]	effect on MPTP-induced neurotoxicity (in words) [6]
	[Cl][Mn][Cl] [MnCl2]	increased brain manganese levels significantly	~ 10 fold	significant deficit in movement; also recorded: significant rotarod deficit			
104	COC(=O)c1c2nc(c(C(F)(F)F)c3ccc([n-]3)c(C(=O)OC)c3nc(c(C(F)(F)F)c4ccc1[n-]4)C=C3)C=C2.[Cl-].[Mn+3] [AEOL 11207]				124	potent H2O2 scavengers	inhibited MPTP-induced neurotoxicity
